According to patent US20090312288A1 (TAKEDA PHARMACEUTICAL COMPANY LIMITED, priority 2008, published 2009):

Molecular target: Aurora B/INCENP (Homo sapiens, UniProt Q96GD4)
Assay: Determination of inhibition of AIK: Aurora B/INCENP direct fluorescence polarization (IMAP) assay
Type: biochemical
Details: 10 uM ATP, 0.8 nM Aurora B/INCENP; values given as bins; read-out: IC50 of Exemplified Compounds Against AIK B
Method: Detection of the reaction product is performed by addition of Progressive IMAP binding reagent (Molecular Devices). Reaction product may be determined quantitatively by FP using an Analyst HT plate reader (Molecular Devices) with an excitation wavelength at 485 nm and emission at 530 nm and using a Fluorescein 505 dichroic mirror.
The assay reaction may be initiated as follows: 2 ul of (3×) 300 nM Fl-Peptide/30 uM ATP was added to each well of the plate, followed by the addition of 2 ul of (3×) inhibitor (2 fold serial dilutions for 11 data points for each inhibitor) containing 15% DMSO. Two microliters of (3×) 2.4 nM AuroraB/INCENP solution may be added to initiate the reaction (final enzyme concentration was 0.8 nM for Aurora B/INCENP). The reaction mixture may then be incubated at room temperature for 45 min, and quenched and developed by addition of 20 ul of 1 to 400 diluted Progressive IMAP binding reagent in 1× proprietary Progressive IMAP binding buffer A. Fluorescence polarization readings of the resulting reaction mixtures may be measured after a 60-minute incubation at room temperature.
IC50 values may be calculated by non-linear curve fitting of the compound concentrations and fluorescent polarization values to the standard IC50 equation.

Sequence of Aurora B/INCENP (Q96GD4 whole entry): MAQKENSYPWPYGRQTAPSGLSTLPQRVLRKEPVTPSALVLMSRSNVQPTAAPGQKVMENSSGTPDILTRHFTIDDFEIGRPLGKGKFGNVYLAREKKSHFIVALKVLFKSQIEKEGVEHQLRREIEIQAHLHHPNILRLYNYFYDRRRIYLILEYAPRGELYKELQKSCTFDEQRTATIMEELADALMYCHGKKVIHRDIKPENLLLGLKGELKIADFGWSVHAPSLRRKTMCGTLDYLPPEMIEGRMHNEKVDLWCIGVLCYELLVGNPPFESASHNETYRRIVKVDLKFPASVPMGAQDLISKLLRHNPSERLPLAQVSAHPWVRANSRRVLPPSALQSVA
Sequence of Aurora B/INCENP (Q9NQS7 whole entry partner): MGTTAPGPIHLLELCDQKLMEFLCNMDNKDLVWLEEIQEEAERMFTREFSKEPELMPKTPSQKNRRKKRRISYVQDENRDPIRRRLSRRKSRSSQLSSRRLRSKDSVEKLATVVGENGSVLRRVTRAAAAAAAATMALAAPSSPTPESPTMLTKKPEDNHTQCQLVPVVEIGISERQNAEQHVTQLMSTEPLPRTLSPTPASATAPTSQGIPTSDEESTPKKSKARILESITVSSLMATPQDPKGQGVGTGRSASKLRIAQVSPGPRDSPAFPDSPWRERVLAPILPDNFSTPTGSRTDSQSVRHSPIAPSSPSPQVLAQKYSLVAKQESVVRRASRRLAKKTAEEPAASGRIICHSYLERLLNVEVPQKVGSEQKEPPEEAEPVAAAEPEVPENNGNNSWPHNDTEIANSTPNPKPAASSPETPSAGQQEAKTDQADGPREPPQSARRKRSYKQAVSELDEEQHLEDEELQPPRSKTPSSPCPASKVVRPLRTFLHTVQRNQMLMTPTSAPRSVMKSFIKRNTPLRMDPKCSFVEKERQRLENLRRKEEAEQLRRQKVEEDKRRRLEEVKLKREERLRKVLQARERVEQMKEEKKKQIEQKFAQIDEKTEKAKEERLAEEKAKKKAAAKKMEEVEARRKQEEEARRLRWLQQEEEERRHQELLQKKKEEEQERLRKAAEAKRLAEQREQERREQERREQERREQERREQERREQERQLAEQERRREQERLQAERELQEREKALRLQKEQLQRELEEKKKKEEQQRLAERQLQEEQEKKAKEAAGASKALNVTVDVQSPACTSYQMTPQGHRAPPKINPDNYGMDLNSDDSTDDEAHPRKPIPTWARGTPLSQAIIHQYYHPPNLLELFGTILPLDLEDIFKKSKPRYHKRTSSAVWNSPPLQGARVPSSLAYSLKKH

CCS(=O)(=O)c1cccc(-c2cc(C(=O)NCC(C)(C)O)c(C)c3[nH]c4ncc(C)cc4c23)c1 [Compound 103, 5-(3-(ethylsulfonyl)phenyl)-N-(2-hydroxy-2-methylpropyl)-3,8-dimethyl-9H-pyrido[2,3-b]indole-7-carboxamide]
IC50: 8.6 to 13 nM

CCS(=O)(=O)c1cccc(-c2cc(C(=O)NC3CCN(C(C)C)CC3)c(C)c3[nH]c4ncc(C)cc4c23)c1 [Compound 104, 5-(3-(ethylsulfonyl)phenyl)-N-(1-isopropylpiperidin-4-yl)-3,8-dimethyl-9H-pyrido[2,3-b]indole-7-carboxamide]
IC50: 8.6 to 13 nM

CCN1CCC(NC(=O)c2cc(-c3cccc(S(=O)(=O)CC)c3)c3c([nH]c4ncc(C)cc43)c2C)CC1 [Compound 105, N-(1-ethylpiperidin-4-yl)-5-(3-(ethylsulfonyl)phenyl)-3,8-dimethyl-9H-pyrido[2,3-b]indole-7-carboxamide]
IC50: > 13 nM

CCS(=O)(=O)c1cccc(-c2cc(C(=O)Nc3nccs3)c(C)c3[nH]c4ncc(C)cc4c23)c1 [Compound 106]
IC50: 5.6 to 8.5 nM

CCS(=O)(=O)c1cccc(-c2cc(C(=O)NCCOCC(F)(F)F)c(C)c3[nH]c4ncc(C)cc4c23)c1 [Compound 107]
IC50: 8.6 to 13 nM

CCS(=O)(=O)c1cccc(-c2cc(C(=O)N[C@@H]3CCCNC3)c(C)c3[nH]c4ncc(C)cc4c23)c1 [Compound 108, (R)-5-(3-(ethylsulfonyl)phenyl)-3,8-dimethyl-N-(piperidin-3-yl)-9H-pyrido[2,3-b]indole-7-carboxamide]
IC50: > 13 nM

CCS(=O)(=O)c1cccc(-c2cc(C(=O)NCCOCCO)c(C)c3[nH]c4ncc(C)cc4c23)c1 [Compound 111]
IC50: 5.6 to 8.5 nM

CCS(=O)(=O)c1cccc(-c2cc(C(=O)NCCN(C)C)c(C)c3[nH]c4ncc(C)cc4c23)c1 [Compound 113]
IC50: 8.6 to 13 nM

CCS(=O)(=O)c1cccc(-c2cc(C(=O)NCC3CCN(C)CC3)c(C)c3[nH]c4ncc(C)cc4c23)c1 [Compound 114, 5-(3-(ethylsulfonyl)phenyl)-3,8-dimethyl-N-((1-methylpiperidin-4-yl)methyl)-9H-pyrido[2,3-b]indole-7-carboxamide]
IC50: 5.6 to 8.5 nM

CCS(=O)(=O)c1cccc(-c2cc(C(=O)NCCCN(C)C)c(C)c3[nH]c4ncc(C)cc4c23)c1 [Compound 115, N-(3-(dimethylamino)propyl)-5-(3-(ethylsulfonyl)phenyl)-3,8-dimethyl-9H-pyrido[2,3-b]indole-7-carboxamide]
IC50: 8.6 to 13 nM

CCS(=O)(=O)c1cccc(-c2cc(C(=O)NCCN3CCCC3)c(C)c3[nH]c4ncc(C)cc4c23)c1 [Compound 116, 5-(3-(ethylsulfonyl)phenyl)-3,8-dimethyl-N-(2-(pyrrolidin-1-yl)ethyl)-9H-pyrido[2,3-b]indole-7-carboxamide]
IC50: 8.6 to 13 nM

Cc1cnc2[nH]c3c(C)c(C(=O)NC4CCN(C)CC4)cc(-c4cccc(NC(=O)C5CC5)c4)c3c2c1 [Compound 120, 5-(3-(cyclopropanecarboxamido)phenyl)-3,8-dimethyl-N-(1-methyl-piperidin-4-yl)-9H-pyrido[2,3-b]indole-7-carboxamide]
IC50: 5.6 to 8.5 nM

Cc1cnc2[nH]c3c(C)c(C(=O)NCCN(C)C)cc(-c4cccc(C(=O)NC5CC5)c4)c3c2c1 [Compound 122, 5-(3-(cyclopropylcarbamoyl)phenyl)-N-(2-(dimethylamino)ethyl)-3,8-dimethyl-9H-pyrido[2,3-b]indole-7-carboxamide]
IC50: > 13 nM

CCS(=O)(=O)c1cccc(-c2cc(C(=O)OC)cc3[nH]c4ncc(C)cc4c23)c1 [Compound 133, 5-(3-Ethanesulfonyl-phenyl)-3-methyl-9H-pyrido[2,3-b]indole-7-carboxylic acid methyl ester]
IC50: 8.6 to 13 nM

CCS(=O)(=O)c1cccc(-c2cc(CO)cc3[nH]c4ncc(C)cc4c23)c1 [Compound 134, [5-(3-Ethanesulfonyl-phenyl)-3-methyl-9H-pyrido[2,3-b]indol-7-yl]-methanol]
IC50: < 4 nM

CCS(=O)(=O)c1cccc(-c2cc(CN(C)C)cc3[nH]c4ncc(C)cc4c23)c1 [Compound 135, [5-(3-Ethanesulfonyl-phenyl)-3-methyl-9H-pyrido[2,3-b]indol-7-ylmethyl]-dimethyl-amine]
IC50: > 13 nM

CCS(=O)(=O)c1cccc(-c2cc(CN3CCOCC3)cc3[nH]c4ncc(C)cc4c23)c1 [Compound 136, 5-(3-Ethanesulfonyl-phenyl)-3-methyl-7-morpholin-4-ylmethyl-9H-pyrido[2,3-b]indole]
IC50: > 13 nM

CCS(=O)(=O)c1cccc(-c2cc(CN3CCN(C)CC3)cc3[nH]c4ncc(C)cc4c23)c1 [Compound 137, 5-(3-Ethanesulfonyl-phenyl)-3-methyl-7-(4-methyl-piperazin-1-ylmethyl)-9H-pyrido[2,3-b]indole]
IC50: 8.6 to 13 nM

CCS(=O)(=O)c1cccc(-c2cc(CN3CCCC3)cc3[nH]c4ncc(C)cc4c23)c1 [Compound 138, 5-(3-Ethanesulfonyl-phenyl)-3-methyl-7-pyrrolidin-1-ylmethyl-9H-pyrido[2,3-b]indole]
IC50: > 13 nM

CCNCc1cc(-c2cccc(S(=O)(=O)CC)c2)c2c(c1)[nH]c1ncc(C)cc12 [Compound 139, [5-(3-Ethanesulfonyl-phenyl)-3-methyl-9H-pyrido[2,3-b]indol-7-ylmethyl]-ethyl-amine]
IC50: > 13 nM

CCS(=O)(=O)c1cccc(-c2cc(C(=O)O)cc3[nH]c4ncc(C)cc4c23)c1 [Compound 140, 5-(3-Ethanesulfonyl-phenyl)-3-methyl-9H-pyrido[2,3-b]indole-7-carboxylic acid]
IC50: 4 to 5.5 nM

CCS(=O)(=O)c1cccc(-c2cc(C(=O)N3CCN(C)CC3)cc3[nH]c4ncc(C)cc4c23)c1 [Compound 141, [5-(3-Ethanesulfonyl-phenyl)-3-methyl-9H-pyrido[2,3-b]indol-7-yl]-(4-methyl-piperazin-1-yl)-methanone]
IC50: > 13 nM

CCS(=O)(=O)c1cccc(-c2cc(C(=O)NCCN(C)C)cc3[nH]c4ncc(C)cc4c23)c1 [Compound 142, 5-(3-Ethanesulfonyl-phenyl)-3-methyl-9H-pyrido[2,3-b]indole-7-carboxylic acid (2-dimethylamino-ethyl)-amide]
IC50: 5.6 to 8.5 nM

CCS(=O)(=O)c1cccc(-c2cc(C(=O)NCCCN(C)C)cc3[nH]c4ncc(C)cc4c23)c1 [Compound 143, 5-(3-Ethanesulfonyl-phenyl)-3-methyl-9H-pyrido[2,3-b]indole-7-carboxylic acid (3-dimethylamino-propyl)-amide]
IC50: > 13 nM

CCS(=O)(=O)c1cccc(-c2cc(C(=O)N3CCC(N(C)C)C3)cc3[nH]c4ncc(C)cc4c23)c1 (centres unmarked) [Compound 145, (3-Dimethylamino-pyrrolidin-1-yl)-[5-(3-ethanesulfonyl-phenyl)-3-methyl-9H-pyrido[2,3-b]indol-7-yl]-methanone]
IC50: > 13 nM

CCNC(=O)c1cc(-c2cccc(S(=O)(=O)CC)c2)c2c(c1)[nH]c1ncc(C)cc12 [Compound 146, N-ethyl-5-(3-(ethylsulfonyl)phenyl)-3-methyl-9H-pyrido[2,3-b]indole-7-carboxamide]
IC50: 5.6 to 8.5 nM

CCS(=O)(=O)c1cccc(-c2c(Br)c(C(=O)OC)cc3[nH]c4ncc(C)cc4c23)c1 [Compound 147, 6-Bromo-5-(3-ethanesulfonyl-phenyl)-3-methyl-9H-pyrido[2,3-b]indole-7-carboxylic acid methyl ester]
IC50: > 13 nM

CCS(=O)(=O)c1cccc(-c2cc(C(=O)OC)c(Br)c3[nH]c4ncc(C)cc4c23)c1 [Compound 148, 8-Bromo-5-(3-ethanesulfonyl-phenyl)-3-methyl-9H-pyrido[2,3-b]indole-7-carboxylic acid methyl ester]
IC50: 4 to 5.5 nM

CCS(=O)(=O)c1cccc(-c2c(Cl)c(C(=O)OC)cc3[nH]c4ncc(C)cc4c23)c1 [Compound 149, 6-Chloro-5-(3-ethanesulfonyl-phenyl)-3-methyl-9H-pyrido[2,3-b]indole-7-carboxylic acid methyl ester]
IC50: > 13 nM

CCS(=O)(=O)c1cccc(-c2cc(C(=O)OC)c(Cl)c3[nH]c4ncc(C)cc4c23)c1 [Compound 150, 8-Chloro-5-(3-ethanesulfonyl-phenyl)-3-methyl-9H-pyrido[2,3-b]indole-7-carboxylic acid methyl ester]
IC50: 4 to 5.5 nM

Cc1cnc2[nH]c3cc(C(=O)O)cc(SCc4ccccc4)c3c2c1 [Compound 151, 5-(benzylthio)-3-methyl-9H-pyrido[2,3-b]indole-7-carboxylic acid]
IC50: > 13 nM

Cc1cnc2[nH]c3cc(C(=O)NCCN(C)C)cc(SCc4ccccc4)c3c2c1 [Compound 152, 5-(benzylthio)-N-(2-(dimethylamino)ethyl)-3-methyl-9H-pyrido[2,3-b]indole-7-carboxamide]
IC50: > 13 nM

CCNS(=O)(=O)c1cccc(-c2cc(C(=O)NC3CCN(C)CC3)c(C)c3[nH]c4ncc(C)cc4c23)c1 [Compound 153]
IC50: > 13 nM

Cc1cnc2[nH]c3c(C)c(C(=O)NC4CCN(C)CC4)cc(-c4cccc(S(=O)(=O)C5CC5)c4)c3c2c1 [Compound 154, 5-(3-(cyclopropylsulfonyl)phenyl)-3,8-dimethyl-N-(1-methylpiperidin-4-yl)-9H-pyrido[2,3-b]indole-7-carboxamide]
IC50: 8.6 to 13 nM

CCS(=O)(=O)c1cccc(-c2ccc(O)c3[nH]c4ncc(C)cc4c23)c1 [Compound 158, 5-(3-(ethylsulfonyl)phenyl)-3-methyl-9H-pyrido[2,3-b]indol-8-ol]
IC50: < 4 nM
